Measurements from PMC10350920, “Development of a 2,4-Diaminothiazole Series for the Treatment of Human African Trypanosomiasis Highlights the Importance of Static–Cidal Screening of Analogues” (Journal of Medicinal Chemistry, 2023).
Read-outs that look alike come from different tables or passages of the source.

Key:
[1] = Rat microsomal intrinsic clearance; assay type: in vitro ADME; conditions: second value of mouse/rat cell
[2] = tested on: BSF T. b. brucei “single marker” S427; assay: Drug sensitivity assay with bloodstream-form T. brucei; assay type: cell-based; conditions: for EC50: mean values, number of replicates in parentheses
Description: (§1) Drug sensitivity assays with BSF T. b. brucei “single marker” S427 and human MRC-5 fibroblasts were conducted as previously described.[43]

human MRC-5 fibroblasts = assay: Mammalian cell counter screen (MRC-5); assay type: cell-based; conditions: for SI: selectivity index (EC50 MRC5/EC50 T. brucei)
Description: as §1

[3] = Mouse liver microsomal intrinsic clearance; assay type: in vitro ADME
Description: Test compounds (0.5 μM) were incubated with female CD1 mouse liver microsomes (Xenotech LLC; 0.5 mg mL^–1 50 mM potassium phosphate buffer, pH 7.4), and the reaction started with the addition of excess NADPH (8 mg mL^–1 50 mM potassium phosphate buffer, pH 7.4). Immediately, at 0 min, and then at 3, 6, 9, 15, and 30 min, an aliquot (50 μL) of the incubation mixture was removed and mixed with acetonitrile (100 μL) to stop the reaction. The internal standard was added to all samples, the samples were centrifuged to sediment the precipitated protein, and the plates were then sealed prior to UPLC–MS/MS analysis using a Quattro Premier XE (Waters Corporation, USA). XLfit (IDBS, UK) was used to calculate the exponential decay and consequently the rate constant (k) from the ratio of the peak area of the test compound to the internal standard at each time point. The rate of intrinsic clearance (CLint) of each test compound was then calculated using the following calculation [drawing 3] where V (mL mg^–1 protein) is the incubation volume mg^–1 protein added and the microsomal protein yield is taken as 52.5 mg protein g^–1 liver. Verapamil (0.5 μM) was used as a positive control to confirm acceptable assay performance.

[4] = Mammalian cell counter screen (MRC-5); assay type: cell-based, human; conditions: human, MRC-5 fibroblasts; mean values; number of replicates in parentheses
Description: as §1

Row | Molecule | CLint (rat) [1] [mL·min/g] | EC50 [2] [nM] | EC50 (human MRC-5 fibroblasts; mean values, number of replicates in parentheses, read-out: MRC-5 EC50) [nM] | SI (human MRC-5 fibroblasts) | CLint (mouse) [3] [mL·min/g] | EC50 (human MRC-5 fibroblasts) [nM] | EC50 ([2]; Trypanosoma brucei) [nM] | EC50 [4] [nM] | reduction (loss, drop off) in potency against T. brucei relative to parent analogue ([2]; SAR comparison) [fold] | improvement in activity against T. brucei relative to parent analogue ([2]; SAR comparison) [fold]
1 | 1-(4-Amino-2-((3,4-difluorophenyl)amino)thiazol-5-yl)-2-((2S,6R)-2,6-dimethylmorpholino)ethanone [Compound 63] | 4.9 | 50 | > 50000 | 1000 | 8.1 |  |  |  |  | 
2 | 1-(4-Amino-2-((3-(difluoromethoxy)phenyl)amino)thiazol-5-yl)-2-((1,1,1-trifluoropropan-2-yl)oxy)ethanone [Compound 54] |  | 20 |  | 2500 |  | > 50000 |  |  |  | 
3 | COC(C)(C)C(=O)c1sc(NC2CCCCC2)nc1N [Compound 17, 1-(4-Amino-2-(cyclohexylamino)thiazol-5-yl)-2-methoxy-2-methylpropan-1-one] |  |  |  | >26 | 3.8 |  | 1900 | > 50000 |  | 
4 | Nc1nc(NC2CCCCC2)sc1C(=O)C1CCC1 [Compound 19, (4-Amino-2-(cyclohexylamino)thiazol-5-yl)cyclobutylmethanone] |  |  |  |  | 21 |  | 370 | 13000 |  | 
5 | Nc1nc(NC2CCCCC2)sc1C(=O)C1CCCCC1 [Compound 20, (4-Amino-2-(cyclohexylamino)thiazol-5-yl) (cyclohexyl)methanone] |  |  |  | 273 | 8.9 |  | 150 | 41000 |  | 
6 | Nc1nc(NC2CCCCC2)sc1C(=O)c1c(Cl)cccc1Cl [Compound 21, (4-Amino-2-(cyclohexylamino)thiazol-5-yl)(2,6-dichlorophenyl)methanone] |  |  |  | 34 | 4.1 |  | 140 | 4800 |  | 
7 | Nc1nc(NC2CCCCC2)sc1C(=O)c1ccc(F)cc1 [Compound 22, (4-Amino-2-(cyclohexylamino)thiazol-5-yl)(4-fluorophenyl)methanone] |  |  |  | 420 | 4.9 |  | 50 | 21000 |  | 
8 | Nc1nc(NC2CCCCC2)sc1C(=O)c1ccc(C(F)(F)F)cc1 [Compound 23, (4-Amino-2-(cyclohexylamino)thiazol-5-yl)(4-(trifluoromethyl)phenyl)methanone] |  |  |  | 56 | 1.4 |  | 660 | 37000 |  | 
9 | Cc1ccc(C(=O)c2sc(NC3CCCCC3)nc2N)cc1 [Compound 24, (4-Amino-2-(cyclohexylamino)thiazol-5-yl)(p-tolyl)methanone] |  |  |  | >179 |  |  | 280 | > 50000 |  | 
10 | Nc1nc(NC2CCCCC2)sc1C(=O)c1ccncc1 [Compound 25, (4-Amino-2-(cyclohexylamino)thiazol-5-yl)(pyridine-4-yl)methanone] |  |  |  | 41 | 4.1 |  | 460 | 19000 |  | 
11 | Nc1nc(NC2CCCCC2)sc1C(=O)c1ccccc1F [Compound 27, (4-Amino-2-(cyclohexylamino)thiazol-5-yl)(2-fluorophenyl)methanone] |  |  |  | 29 | 9.7 |  | 70 |  |  | 
12 | Nc1nc(NC2CCCCC2)sc1C(=O)c1ccccc1C(F)(F)F [Compound 28] |  |  |  | 5 | 14 |  | 390 | 1900 |  | 
13 | Nc1nc(NC2CCCCC2)sc1C(=O)c1ccc(F)cc1F [Compound 29, (4-Amino-2-(cyclohexylamino)thiazol-5-yl)(2,4-difluorophenyl)methanone] |  |  |  | 128 | 6.5 |  | 50 | 6400 |  | 
14 | Nc1nc(NC2CCCCC2)sc1C(=O)c1ccc(F)c(F)c1 [Compound 30, (4-Amino-2-(cyclohexylamino)thiazol-5-yl)(3,4-difluorophenyl)methanone] |  |  |  | 840 | 12 |  | 50 | 42000 |  | 
15 | Nc1nc(NC2CCCCC2)sc1C(=O)c1cc(F)cc(F)c1 [Compound 31, (4-Amino-2-(cyclohexylamino)thiazol-5-yl)(3,5-difluorophenyl)methanone] |  |  |  | 19 | 3.6 |  | 160 | 3100 |  | 
16 | O=C(c1cnc(NC2CCCCC2)s1)C1CCCCC1 [Compound 32, Cyclohexyl(2-(cyclohexylamino)thiazole-5-yl)methanone] |  |  |  | 3 | 15 |  | 18000 | 49000 | > 20 | 
17 | O=C(c1cnc(NC2CCCCC2)s1)c1c(F)cccc1F [Compound 33, (2-(Cyclohexylamino)thiazol-5-yl)(2,6-difluorophenyl)methanone] |  |  |  | 3 |  |  | 15000 | 47000 | > 20 | 
18 | Nc1nc(Nc2ccccc2)sc1C(=O)c1ccc(F)cc1 [Compound 35, (4-Amino-2-(phenylamino)thiazol-5-yl)(4-fluorophenyl)methanone] |  |  |  | >263 | 7.3 |  | 190 | > 50000 |  | 
19 | CC(C)CC(=O)c1sc(Nc2ccc(F)cc2)nc1N [Compound 36, 1-(4-Amino-2-((4-fluorophenyl)amino)thiazol-5-yl)-3-methylbutan-1-one] |  |  |  | >455 | 8.0 |  | 110 | > 50000 |  | 
20 | COC(C)(C)CC(=O)c1sc(Nc2ccc(F)c(F)c2)nc1N [Compound 39, 1-(4-Amino-2-((3,4-difluorophenyl)amino)thiazol-5-yl)-3-methoxy-3-methylbutan-1-one] |  |  |  | 238 | 6.1 |  | 210 | > 50000 |  | 
21 | CC(C)(C)CC(=O)c1sc(Nc2ccc(F)c(F)c2)nc1N [Compound 40, 1-(4-Amino-2-((3,4-difluorophenyl)amino)thiazol-5-yl)-3,3-dimethylbutan-1-one] |  |  |  | >333 | 4.6 |  | 150 | > 50000 |  | 
22 | CC(C)(F)CC(=O)c1sc(Nc2ccc(F)c(F)c2)nc1N [Compound 41, 1-(4-Amino-2-((3,4-difluorophenyl)amino)thiazol-5-yl)-3-fluoro-3-methylbutan-1-one] |  |  |  | 82 |  |  | 560 | 46000 |  | 
23 | CC(C)OCC(=O)c1sc(Nc2ccc(F)c(F)c2)nc1N [Compound 42, 1-(4-Amino-2-((3,4-difluorophenyl)amino)thiazol-5-yl)-2-isopropoxyethanone] | 3.6 |  |  | 2500 | 9.3 |  | 20 | > 50000 |  | 10
24 | CC(C)(C)OCC(=O)c1sc(Nc2ccc(F)c(F)c2)nc1N [Compound 43, 1-(4-Amino-2-((3,4-difluorophenyl)amino)thiazol-5-yl)-2-(tert-butoxy)ethanone] |  |  |  | 500 |  |  | 100 | > 50000 |  | 
25 | CCOCC(=O)c1sc(Nc2ccc(F)c(F)c2)nc1N [Compound 44, 1-(4-Amino-2-((3,4-difluorophenyl)amino)thiazol-5-yl)-2-ethoxyethanone] |  |  |  | 333 |  |  | 150 | > 50000 |  | 
26 | CC(C)OCCC(=O)c1sc(Nc2ccc(F)c(F)c2)nc1N [Compound 45, 1-(4-Amino-2-((3,4-difluorophenyl)amino)thiazol-5-yl)-3-isopropoxypropan-1-one] |  |  |  | 19 |  |  | 2600 | > 50000 |  | 
27 | Nc1nc(Nc2ccc(F)c(F)c2)sc1C(=O)COC1CCC1 [Compound 46, 1-(4-Amino-2-((3,4-difluorophenyl)amino)thiazol-5-yl)-2-cyclobutoxyethanone] | 8.2 |  |  | 2500 | 9 |  | 20 | > 50000 |  | 
28 | Nc1nc(Nc2ccc(F)c(F)c2)sc1C(=O)COC(CF)CF [Compound 48, 1-(4-Amino-2-((3,4-difluorophenyl)amino)thiazol-5-yl)-2-((1,3-difluoropropan-2-yl)oxy)ethanone] |  |  |  | 1000 |  |  | 50 | > 50000 |  | 
29 | Nc1nc(Nc2ccc(F)c(F)c2)sc1C(=O)COC(C(F)(F)F)C(F)(F)F [Compound 49, 1-(4-Amino-2-((3,4-diflurorophenyl)amino)thiazol-5-yl)-2-(((1,1,1,3,3,3)-hexafluoropropan-2-yl)oxy)ethanone] |  |  |  | 650 |  |  | 20 | 13000 |  | 
30 | Nc1nc(Nc2ccc(F)c(F)c2)sc1C(=O)CN1CCOCC1 [Compound 62, 1-(4-Amino-2-((3,4-difluorophenyl)amino)thiazol-5-yl)-2-morpholinoethanone] | 9 |  |  |  | 4.7 |  | 40 | > 50000 |  | 
